Legend:
K-562 cell line = test: In vitro phototoxicity, cell viability in the K-562 cell line procedure (argon ion laser 514.5 nm); type: cell-based
Experimental: To ascertain the photochemotherapeutic potential of 4, 5-dibromorhodamine 110 n-butyl ester hydrobromide (DBBE), in vitro phototoxicity was evaluated in the K-562 cell line procedure described. The cells were incubated with increasing concentrations of DBBE and the cell viability was measured at different time points following photodynamic therapy.
The photo toxicity in vitro of rhodamine B n-butyl ester (RBBE) was evaluated in the K-562 cell line procedure, in order to assess its photochemotherapeutic potential. Comparison was made to the induced phototoxicity of rhodamine 123 (RH123) and of rhodamine nB-butyl ester hydrochloride. Cell viability was evaluated 2 and 20 hours after photodynamic therapy. […] Rhodamine 123 has no effect on cell viability, even at exposures of 5 J/cm^2. Phototoxicity of 4,5-dibromorhodamine 110 n-butyl ester hydrobromide and rhodamine B n-butyl ester hydrochloride were only assessed against the cell line K562. However, we anticipate that their activity will be similar against T cells.

[1] = tested on: normal mouse long term culture of bone marrow and hematopoietic colonies; test: Phototoxicity against hematopoietic progenitor cell cultures (long term culture of bone marrow, semi-solid colony assays); type: cell-based
From the text: However, as reported for rhodamine 123, the LTC (Long Term Culture) establishment is more sensitive to the dyes but the number of viable committed precursor and stem cells remains unaffected. […] This is in agreement with results obtained previously in other laboratories using rhodamine 123.

Row | SMILES | cell viability after photodynamic therapy (K-562 cell line; 10 μg/ml, 0.5 J/cm^2 at 514.5 nm, less than 24 hours after irradiation) | establishment of normal mouse long term culture of bone marrow and formation of hematopoietic colonies in semi-solid assays after photodynamic therapy [1] | effect on cell viability (K-562 cell line; even at exposures of 5 J/cm^2) | cell viability of K562 cells after photodynamic therapy (K-562 cell line; 10 µg/ml, 5 J/cm^2 argon ion laser 514.5 nm, less than 20 hours after irradiation)
1 | Br.CCCCOC(=O)c1ccccc1-c1c2ccc(=N)c(Br)c-2oc2c(Br)c(N)ccc12 [DBBE, 4,5-dibromorhodamine 110 (2-(4,5-dibromo-6-amino-3-imino-3H-xanthen-9-yl)-benzoic acid) n-butyl ester hydrobromide] | completely suppress | minimally impaired |  | 
2 | COC(=O)c1ccccc1-c1c2ccc(=N)cc-2oc2cc(N)ccc12.Cl [Rhodamine 123, Rhodamine 123 (2-(6-amino-3-imino-3H-xanthen-9-yl)benzoic acid methyl ester) hydrochloride, reference compound] |  | minimally impaired | no effect | 
3 | CCCCOC(=O)c1ccccc1-c1c2ccc(=NCC)cc-2oc2cc(N(CC)CC)ccc12.Cl [RBBE, Rhodamine B n-butyl ester (2-(6-diethyl amino-3-ethyl imino-3H-xanthen-9-yl)-benzoic acid) n-butyl diester hydrochloride] |  | minimally impaired |  | significantly suppress

From US8802082B2, “Rhodamine derivatives for photodynamic diagnosis and treatment” (Université de Montreal, priority 1999, dated 2014)
